Measurements from the NIST ThermoML archive (doi:10.1016/j.jct.2011.01.014).
Numbers after ± are expanded uncertainties.

Assay: xn = mol fraction of the nth substance listed
Details: 101 kPa, Liquid; for mass density: Vibrating tube method; for speed of sound: sound velocity cell

CC(=O)[O-].[NH3+]CCO [2-hydroxyethylammonium acetate] + CO
Details | mass density [kg/m3] | speed of sound [m/s]
288.15 K, x1 = 0.0492 | 850.323 ± 1 | 1214.8 ± 1.9
288.15 K, x1 = 0.0951 | 891.619 ± 0.73 | 1276.8 ± 1.7
288.15 K, x1 = 0.1987 | 958.564 ± 0.61 | 1390.3 ± 1.7
288.15 K, x1 = 0.29 | 1002.52 ± 0.52 | 1476.1 ± 1.8
288.15 K, x1 = 0.3786 | 1034.79 ± 0.56 | 1545.4 ± 1.9
288.15 K, x1 = 0.4825 | 1066.13 ± 0.73 | 1618.4 ± 2
288.15 K, x1 = 0.6007 | 1093.45 ± 1 | 1688 ± 2.3
288.15 K, x1 = 0.6711 | 1107.68 ± 1.2 | 1725.1 ± 2.4
288.15 K, x1 = 0.7797 | 1126.68 ± 1.6 | 1740.8 ± 2.7
288.15 K, x1 = 0.8297 | 1134.06 ± 1.8 | 1797.8 ± 2.8
288.15 K, x1 = 0.9328 | 1147.97 ± 2.2 | 1795.3 ± 3
288.15 K, x1 = 1 | 1154.7 ± 2.6 | 1817.2 ± 3.2
290.65 K, x1 = 0.0492 | 848.152 ± 1 | 1207.2 ± 1.9
290.65 K, x1 = 0.0951 | 889.567 ± 0.72 | 1269.4 ± 1.7
290.65 K, x1 = 0.1987 | 956.698 ± 0.61 | 1383.4 ± 1.7
290.65 K, x1 = 0.29 | 1000.78 ± 0.52 | 1469.5 ± 1.8
290.65 K, x1 = 0.3786 | 1033.16 ± 0.56 | 1538.9 ± 1.9
290.65 K, x1 = 0.4825 | 1064.58 ± 0.73 | 1612.3 ± 2
290.65 K, x1 = 0.6007 | 1091.92 ± 1 | 1681.6 ± 2.3
290.65 K, x1 = 0.6711 | 1106.19 ± 1.2 | 1718.6 ± 2.4
290.65 K, x1 = 0.7797 | 1125.18 ± 1.6 | 1734.6 ± 2.6
290.65 K, x1 = 0.8297 | 1132.65 ± 1.8 | 1790.7 ± 2.8
290.65 K, x1 = 0.9328 | 1146.53 ± 2.2 | 1787.9 ± 3
290.65 K, x1 = 1 | 1153.28 ± 2.6 | 1810 ± 3.2
293.15 K, x1 = 0.0492 | 845.97 ± 1 | 1199.8 ± 1.9
293.15 K, x1 = 0.0951 | 887.505 ± 0.72 | 1262.1 ± 1.7
293.15 K, x1 = 0.1987 | 954.823 ± 0.61 | 1376.3 ± 1.7
293.15 K, x1 = 0.29 | 999.035 ± 0.52 | 1462.8 ± 1.8
293.15 K, x1 = 0.3786 | 1031.5 ± 0.56 | 1532.4 ± 1.9
293.15 K, x1 = 0.4825 | 1063.02 ± 0.72 | 1606.2 ± 2
293.15 K, x1 = 0.6007 | 1090.45 ± 1 | 1675.2 ± 2.3
293.15 K, x1 = 0.6711 | 1104.7 ± 1.2 | 1712.1 ± 2.4
293.15 K, x1 = 0.7797 | 1123.69 ± 1.6 | 1728.6 ± 2.6
293.15 K, x1 = 0.8297 | 1131.24 ± 1.8 | 1784 ± 2.8
293.15 K, x1 = 0.9328 | 1145.1 ± 2.2 | 1781.1 ± 3
293.15 K, x1 = 1 | 1151.87 ± 2.5 | 1803.2 ± 3.2
295.65 K, x1 = 0.0492 | 843.786 ± 1 | 1192.1 ± 1.9
295.65 K, x1 = 0.0951 | 885.441 ± 0.72 | 1254.6 ± 1.7
295.65 K, x1 = 0.1987 | 952.95 ± 0.61 | 1369.2 ± 1.7
295.65 K, x1 = 0.29 | 997.283 ± 0.52 | 1456 ± 1.8
295.65 K, x1 = 0.3786 | 1029.84 ± 0.56 | 1525.9 ± 1.9
295.65 K, x1 = 0.4825 | 1061.45 ± 0.72 | 1600 ± 2
295.65 K, x1 = 0.6007 | 1088.98 ± 1 | 1669.1 ± 2.3
295.65 K, x1 = 0.6711 | 1103.21 ± 1.2 | 1705.8 ± 2.4
295.65 K, x1 = 0.7797 | 1122.2 ± 1.6 | 1722.7 ± 2.6
295.65 K, x1 = 0.8297 | 1129.83 ± 1.8 | 1777.5 ± 2.8
295.65 K, x1 = 0.9328 | 1143.67 ± 2.2 | 1774.5 ± 3
295.65 K, x1 = 1 | 1150.45 ± 2.5 | 1796.8 ± 3.2
298.15 K, x1 = 0.0492 | 841.599 ± 1 | 1184.3 ± 1.9
298.15 K, x1 = 0.0951 | 883.376 ± 0.72 | 1247 ± 1.7
298.15 K, x1 = 0.1987 | 951.074 ± 0.61 | 1362.2 ± 1.7
298.15 K, x1 = 0.29 | 995.529 ± 0.52 | 1449.3 ± 1.8
298.15 K, x1 = 0.3786 | 1028.18 ± 0.56 | 1519.5 ± 1.9
298.15 K, x1 = 0.4825 | 1059.89 ± 0.72 | 1593.9 ± 2
298.15 K, x1 = 0.6007 | 1087.51 ± 1 | 1663 ± 2.3
298.15 K, x1 = 0.6711 | 1101.72 ± 1.2 | 1699.7 ± 2.4
298.15 K, x1 = 0.7797 | 1120.71 ± 1.6 | 1717 ± 2.6
298.15 K, x1 = 0.8297 | 1128.41 ± 1.8 | 1771.3 ± 2.8
298.15 K, x1 = 0.9328 | 1142.24 ± 2.2 | 1768.2 ± 3
298.15 K, x1 = 1 | 1149.04 ± 2.5 | 1790.7 ± 3.2
300.65 K, x1 = 0.0492 | 839.407 ± 1 | 1176.5 ± 1.9
300.65 K, x1 = 0.0951 | 881.305 ± 0.73 | 1239.5 ± 1.7
300.65 K, x1 = 0.1987 | 949.197 ± 0.61 | 1355.1 ± 1.7
300.65 K, x1 = 0.29 | 993.775 ± 0.52 | 1442.7 ± 1.8
300.65 K, x1 = 0.3786 | 1026.52 ± 0.56 | 1513.1 ± 1.9
300.65 K, x1 = 0.4825 | 1058.32 ± 0.72 | 1587.8 ± 2
300.65 K, x1 = 0.6007 | 1086.03 ± 1 | 1657 ± 2.3
300.65 K, x1 = 0.6711 | 1100.3 ± 1.2 | 1693.7 ± 2.4
300.65 K, x1 = 0.7797 | 1119.26 ± 1.6 | 1711.3 ± 2.6
300.65 K, x1 = 0.8297 | 1127 ± 1.8 | 1765.3 ± 2.8
300.65 K, x1 = 0.9328 | 1140.81 ± 2.2 | 1762.1 ± 3
300.65 K, x1 = 1 | 1147.63 ± 2.5 | 1784.8 ± 3.2
303.15 K, x1 = 0.0492 | 837.209 ± 1 | 1168.8 ± 1.9
303.15 K, x1 = 0.0951 | 879.233 ± 0.73 | 1232 ± 1.7
303.15 K, x1 = 0.1987 | 947.318 ± 0.62 | 1348.1 ± 1.7
303.15 K, x1 = 0.29 | 992.018 ± 0.52 | 1436 ± 1.8
303.15 K, x1 = 0.3786 | 1024.86 ± 0.56 | 1506.7 ± 1.9
303.15 K, x1 = 0.4825 | 1056.74 ± 0.72 | 1581.7 ± 2
303.15 K, x1 = 0.6007 | 1084.54 ± 1 | 1651 ± 2.3
303.15 K, x1 = 0.6711 | 1098.87 ± 1.2 | 1687.7 ± 2.4
303.15 K, x1 = 0.7797 | 1117.84 ± 1.6 | 1705.7 ± 2.6
303.15 K, x1 = 0.8297 | 1125.59 ± 1.8 | 1759.4 ± 2.8
303.15 K, x1 = 0.9328 | 1139.38 ± 2.2 | 1756.3 ± 3
303.15 K, x1 = 1 | 1146.22 ± 2.5 | 1779 ± 3.2
305.65 K, x1 = 0.0492 | 835.006 ± 1 | –
305.65 K, x1 = 0.0951 | 877.153 ± 0.73 | –
305.65 K, x1 = 0.1987 | 945.436 ± 0.62 | –
305.65 K, x1 = 0.29 | 990.259 ± 0.52 | –
305.65 K, x1 = 0.3786 | 1023.19 ± 0.55 | –
305.65 K, x1 = 0.4825 | 1055.17 ± 0.71 | –
305.65 K, x1 = 0.6007 | 1083.06 ± 1 | –
305.65 K, x1 = 0.6711 | 1097.42 ± 1.2 | –
305.65 K, x1 = 0.7797 | 1116.4 ± 1.6 | –
305.65 K, x1 = 0.8297 | 1124.17 ± 1.8 | –
305.65 K, x1 = 0.9328 | 1137.95 ± 2.2 | –
305.65 K, x1 = 1 | 1144.8 ± 2.5 | –
